ChEMBL document CHEMBL1152560, “Substituted 2-arylbenzothiazoles as kinase inhibitors: hit-to-lead optimization” (Bioorg Med Chem, 2009)

Assays:
[1] = biological target: Proto-oncogene tyrosine-protein kinase Src (Homo sapiens) (UniProt P12931); assay: Residual activity of SRC at 0.1 uM by microplate scintillation counting
[2] = Residual activity of S6K at 10 uM by microplate scintillation counting
[3] = biological target: T1, Serine/threonine-protein kinase D2 (Homo sapiens) (UniProt Q9BZL6); assay: Residual activity of PRKD2 at 0.1 uM by microplate scintillation counting
T1 sequence (whole entry): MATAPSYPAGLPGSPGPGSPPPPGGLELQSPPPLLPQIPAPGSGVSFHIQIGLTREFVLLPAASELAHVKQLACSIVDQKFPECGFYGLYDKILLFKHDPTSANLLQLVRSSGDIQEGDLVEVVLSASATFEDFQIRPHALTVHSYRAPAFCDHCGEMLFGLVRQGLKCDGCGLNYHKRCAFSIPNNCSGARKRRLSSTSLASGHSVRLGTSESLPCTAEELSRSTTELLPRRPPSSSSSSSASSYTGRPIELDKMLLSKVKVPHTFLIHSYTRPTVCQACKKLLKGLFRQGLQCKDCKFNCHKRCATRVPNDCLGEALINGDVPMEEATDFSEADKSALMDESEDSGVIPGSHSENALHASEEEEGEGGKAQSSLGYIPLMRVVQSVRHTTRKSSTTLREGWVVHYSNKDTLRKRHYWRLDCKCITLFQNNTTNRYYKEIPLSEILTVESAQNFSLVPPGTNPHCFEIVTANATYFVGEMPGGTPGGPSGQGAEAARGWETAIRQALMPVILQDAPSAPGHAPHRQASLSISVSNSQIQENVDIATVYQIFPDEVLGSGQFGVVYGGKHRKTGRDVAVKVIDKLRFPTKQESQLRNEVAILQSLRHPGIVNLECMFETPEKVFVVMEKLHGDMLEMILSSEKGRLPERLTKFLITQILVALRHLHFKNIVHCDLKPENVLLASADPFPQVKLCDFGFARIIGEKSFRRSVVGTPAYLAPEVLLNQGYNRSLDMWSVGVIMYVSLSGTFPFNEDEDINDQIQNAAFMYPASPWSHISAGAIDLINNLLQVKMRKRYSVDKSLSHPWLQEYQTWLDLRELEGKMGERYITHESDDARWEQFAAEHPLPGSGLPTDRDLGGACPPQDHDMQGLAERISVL

[4] = biological target: ALK tyrosine kinase receptor (Homo sapiens) (UniProt Q9UM73); assay: Residual activity of ALK at 0.1 uM by microplate scintillation counting
[5] = biological target: Serine/threonine-protein kinase MRCK beta (Homo sapiens) (UniProt Q9Y5S2); assay: Residual activity of CDC42BPB at 1 uM by microplate scintillation counting
[6] = biological target: Platelet-derived growth factor receptor beta (Homo sapiens, UniProt P09619); assay: Residual activity of PDGFRbeta at 10 uM by microplate scintillation counting
[7] = biological target: Tyrosine-protein kinase CSK (Homo sapiens) (UniProt P41240); assay: Residual activity of CSK at 10 uM by microplate scintillation counting
[8] = biological target: Tyrosine-protein kinase Lyn (Homo sapiens) (UniProt P07948); assay: Residual activity of LYN at 0.1 uM by microplate scintillation counting
[9] = biological target: T2, Mitogen-activated protein kinase 12 (Homo sapiens) (UniProt P53778); assay: Residual activity of p38-gamma at 0.1 uM by microplate scintillation counting
T2 sequence (whole entry): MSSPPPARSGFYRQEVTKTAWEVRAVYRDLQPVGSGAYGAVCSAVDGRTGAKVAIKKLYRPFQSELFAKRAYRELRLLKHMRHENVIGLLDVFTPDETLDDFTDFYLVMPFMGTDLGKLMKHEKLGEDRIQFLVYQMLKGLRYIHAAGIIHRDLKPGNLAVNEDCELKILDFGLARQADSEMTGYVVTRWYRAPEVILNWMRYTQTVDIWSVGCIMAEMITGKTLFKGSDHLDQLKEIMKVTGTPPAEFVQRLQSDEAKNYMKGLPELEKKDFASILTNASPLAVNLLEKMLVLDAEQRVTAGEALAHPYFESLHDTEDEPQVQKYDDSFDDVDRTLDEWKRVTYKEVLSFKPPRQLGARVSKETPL

[10] = biological target: T3, Protein kinase C epsilon type (Homo sapiens) (UniProt Q02156); assay: Residual activity of PKCepsilon at 1 uM by microplate scintillation counting
T3 sequence (whole entry): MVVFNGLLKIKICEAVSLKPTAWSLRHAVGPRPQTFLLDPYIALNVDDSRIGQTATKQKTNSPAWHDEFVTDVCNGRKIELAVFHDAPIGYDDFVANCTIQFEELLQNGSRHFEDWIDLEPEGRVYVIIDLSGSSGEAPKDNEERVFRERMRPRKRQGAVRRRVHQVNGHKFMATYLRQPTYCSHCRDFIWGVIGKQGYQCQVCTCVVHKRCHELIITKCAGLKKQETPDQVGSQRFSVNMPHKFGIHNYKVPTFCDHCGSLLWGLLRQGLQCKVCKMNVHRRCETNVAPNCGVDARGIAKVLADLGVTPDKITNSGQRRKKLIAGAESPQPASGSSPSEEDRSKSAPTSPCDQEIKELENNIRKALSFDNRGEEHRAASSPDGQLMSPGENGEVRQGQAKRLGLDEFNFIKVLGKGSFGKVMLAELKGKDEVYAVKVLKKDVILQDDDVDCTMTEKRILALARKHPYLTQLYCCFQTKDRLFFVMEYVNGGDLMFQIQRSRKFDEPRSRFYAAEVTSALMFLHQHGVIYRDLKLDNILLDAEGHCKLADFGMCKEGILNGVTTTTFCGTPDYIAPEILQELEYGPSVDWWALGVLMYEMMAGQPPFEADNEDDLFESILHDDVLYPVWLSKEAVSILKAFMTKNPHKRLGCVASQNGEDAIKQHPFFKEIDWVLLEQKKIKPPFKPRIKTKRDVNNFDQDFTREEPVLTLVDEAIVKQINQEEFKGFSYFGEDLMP

[11] = biological target: Tyrosine-protein kinase receptor UFO (Homo sapiens) (UniProt P30530); assay: Residual activity of AXL at 1 uM by microplate scintillation counting
[12] = biological target: Calcium/calmodulin-dependent protein kinase kinase 2 (Homo sapiens) (UniProt Q96RR4); assay: Residual activity of CAMKK2 at 0.1 uM by microplate scintillation counting
[13] = biological target: Protein kinase C alpha type (Homo sapiens) (UniProt P17252); assay: Residual activity of PKCalpha at 10 uM by microplate scintillation counting

Chain of Tyrosine-protein kinase CSK (Homo sapiens) (P41240 2-450 limits assumed): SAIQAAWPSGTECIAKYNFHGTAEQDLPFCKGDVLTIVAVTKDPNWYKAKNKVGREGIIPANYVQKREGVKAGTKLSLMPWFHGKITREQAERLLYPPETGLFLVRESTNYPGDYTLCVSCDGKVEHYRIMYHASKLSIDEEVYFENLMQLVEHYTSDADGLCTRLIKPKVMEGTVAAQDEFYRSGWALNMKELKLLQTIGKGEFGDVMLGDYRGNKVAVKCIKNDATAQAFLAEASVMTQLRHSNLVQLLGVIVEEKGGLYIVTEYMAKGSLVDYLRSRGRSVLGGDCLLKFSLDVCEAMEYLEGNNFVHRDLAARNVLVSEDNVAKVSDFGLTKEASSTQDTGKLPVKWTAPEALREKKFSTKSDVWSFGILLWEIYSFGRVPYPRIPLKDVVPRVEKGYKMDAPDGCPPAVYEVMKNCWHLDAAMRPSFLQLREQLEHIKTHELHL
Chain of Proto-oncogene tyrosine-protein kinase Src (Homo sapiens) (P12931 2-536 limits assumed): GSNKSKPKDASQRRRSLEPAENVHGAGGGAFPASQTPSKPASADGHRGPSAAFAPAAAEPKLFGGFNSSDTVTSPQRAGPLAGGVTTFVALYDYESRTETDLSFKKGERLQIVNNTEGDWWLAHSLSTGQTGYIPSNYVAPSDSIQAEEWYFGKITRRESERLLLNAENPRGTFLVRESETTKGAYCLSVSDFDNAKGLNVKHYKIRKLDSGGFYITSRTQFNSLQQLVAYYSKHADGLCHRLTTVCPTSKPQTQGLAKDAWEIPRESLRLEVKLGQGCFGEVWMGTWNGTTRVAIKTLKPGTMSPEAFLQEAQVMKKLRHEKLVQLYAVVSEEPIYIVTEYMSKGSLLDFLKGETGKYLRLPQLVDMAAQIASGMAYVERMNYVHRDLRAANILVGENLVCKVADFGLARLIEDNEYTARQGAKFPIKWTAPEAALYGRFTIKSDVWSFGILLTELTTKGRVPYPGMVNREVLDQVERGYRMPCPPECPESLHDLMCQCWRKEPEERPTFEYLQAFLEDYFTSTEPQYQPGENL
Chain of Calcium/calmodulin-dependent protein kinase kinase 2 (Homo sapiens) (Q96RR4 2-588 limits assumed): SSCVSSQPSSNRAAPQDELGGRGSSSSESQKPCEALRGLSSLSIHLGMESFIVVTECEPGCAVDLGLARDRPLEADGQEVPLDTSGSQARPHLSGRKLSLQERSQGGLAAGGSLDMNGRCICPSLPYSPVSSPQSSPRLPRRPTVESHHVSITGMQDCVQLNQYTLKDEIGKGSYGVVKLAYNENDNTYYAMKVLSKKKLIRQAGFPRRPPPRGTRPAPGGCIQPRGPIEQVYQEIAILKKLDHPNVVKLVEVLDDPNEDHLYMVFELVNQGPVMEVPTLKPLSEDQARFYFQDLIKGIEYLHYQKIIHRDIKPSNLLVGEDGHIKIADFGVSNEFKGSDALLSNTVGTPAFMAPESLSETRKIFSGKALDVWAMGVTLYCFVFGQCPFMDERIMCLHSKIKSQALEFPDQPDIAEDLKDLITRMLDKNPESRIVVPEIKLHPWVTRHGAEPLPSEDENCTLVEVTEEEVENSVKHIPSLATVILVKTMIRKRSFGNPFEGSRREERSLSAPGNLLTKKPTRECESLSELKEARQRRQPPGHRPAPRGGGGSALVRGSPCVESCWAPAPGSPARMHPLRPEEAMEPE
Chain of Serine/threonine-protein kinase MRCK beta (Homo sapiens) (Q9Y5S2 whole entry): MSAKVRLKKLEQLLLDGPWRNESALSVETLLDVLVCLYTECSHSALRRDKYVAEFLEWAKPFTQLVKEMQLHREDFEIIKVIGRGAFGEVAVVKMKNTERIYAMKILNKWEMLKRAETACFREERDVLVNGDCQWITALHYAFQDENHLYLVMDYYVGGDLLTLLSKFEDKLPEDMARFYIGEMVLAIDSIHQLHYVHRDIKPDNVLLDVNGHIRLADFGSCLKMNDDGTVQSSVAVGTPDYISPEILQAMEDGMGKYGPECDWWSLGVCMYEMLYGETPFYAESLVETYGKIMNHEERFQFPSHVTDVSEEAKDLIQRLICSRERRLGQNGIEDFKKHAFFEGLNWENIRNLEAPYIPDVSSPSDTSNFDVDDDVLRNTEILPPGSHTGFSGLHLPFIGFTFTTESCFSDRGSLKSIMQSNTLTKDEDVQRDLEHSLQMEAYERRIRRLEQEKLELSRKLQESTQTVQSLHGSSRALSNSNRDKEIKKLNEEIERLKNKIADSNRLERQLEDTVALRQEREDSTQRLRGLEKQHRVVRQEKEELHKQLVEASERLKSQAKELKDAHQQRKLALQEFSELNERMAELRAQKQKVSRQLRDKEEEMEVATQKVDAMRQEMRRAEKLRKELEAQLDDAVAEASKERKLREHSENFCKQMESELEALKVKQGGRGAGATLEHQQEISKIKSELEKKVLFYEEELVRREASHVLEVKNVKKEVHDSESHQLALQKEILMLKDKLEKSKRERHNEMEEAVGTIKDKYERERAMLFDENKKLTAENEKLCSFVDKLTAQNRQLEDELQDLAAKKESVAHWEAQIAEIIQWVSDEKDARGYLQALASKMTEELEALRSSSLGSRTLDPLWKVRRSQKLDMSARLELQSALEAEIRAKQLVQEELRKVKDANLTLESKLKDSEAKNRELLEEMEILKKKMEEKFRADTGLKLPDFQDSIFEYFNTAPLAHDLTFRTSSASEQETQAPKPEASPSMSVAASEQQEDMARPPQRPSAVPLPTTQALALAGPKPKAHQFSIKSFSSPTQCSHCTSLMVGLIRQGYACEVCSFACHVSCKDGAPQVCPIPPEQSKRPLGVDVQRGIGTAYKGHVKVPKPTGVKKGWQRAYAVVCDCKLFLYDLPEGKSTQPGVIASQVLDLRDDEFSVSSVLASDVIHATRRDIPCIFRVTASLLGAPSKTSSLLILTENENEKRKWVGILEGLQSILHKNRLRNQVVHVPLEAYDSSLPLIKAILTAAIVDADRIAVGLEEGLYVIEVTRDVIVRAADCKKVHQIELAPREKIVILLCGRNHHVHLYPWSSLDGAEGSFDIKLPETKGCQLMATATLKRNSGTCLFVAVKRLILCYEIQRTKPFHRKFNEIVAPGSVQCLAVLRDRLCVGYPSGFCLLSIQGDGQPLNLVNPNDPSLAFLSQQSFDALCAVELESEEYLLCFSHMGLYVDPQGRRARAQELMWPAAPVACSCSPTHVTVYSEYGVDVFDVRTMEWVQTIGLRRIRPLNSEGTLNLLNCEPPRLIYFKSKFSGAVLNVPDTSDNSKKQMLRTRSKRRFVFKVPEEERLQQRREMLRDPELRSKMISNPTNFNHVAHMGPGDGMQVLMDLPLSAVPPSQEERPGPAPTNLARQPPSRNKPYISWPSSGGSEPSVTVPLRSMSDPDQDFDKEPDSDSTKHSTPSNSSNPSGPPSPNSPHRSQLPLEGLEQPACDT
Chain of Tyrosine-protein kinase Lyn (Homo sapiens) (P07948 2-512 limits assumed): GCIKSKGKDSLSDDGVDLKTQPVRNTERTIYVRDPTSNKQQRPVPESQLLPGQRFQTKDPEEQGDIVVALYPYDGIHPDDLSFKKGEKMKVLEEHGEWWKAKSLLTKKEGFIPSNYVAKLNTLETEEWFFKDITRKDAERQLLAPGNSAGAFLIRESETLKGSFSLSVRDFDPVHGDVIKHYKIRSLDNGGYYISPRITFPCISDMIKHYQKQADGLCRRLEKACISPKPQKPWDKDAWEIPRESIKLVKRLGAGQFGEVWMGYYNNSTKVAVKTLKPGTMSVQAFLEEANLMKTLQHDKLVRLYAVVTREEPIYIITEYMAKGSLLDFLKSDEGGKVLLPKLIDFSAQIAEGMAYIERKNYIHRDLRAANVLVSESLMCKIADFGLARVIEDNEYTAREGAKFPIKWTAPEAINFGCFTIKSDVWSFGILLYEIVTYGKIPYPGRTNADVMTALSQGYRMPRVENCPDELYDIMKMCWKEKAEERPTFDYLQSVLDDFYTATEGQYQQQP

residual activity [1] [%] | residual activity [2] [%] | residual activity [3] [%] | residual activity [4] [%] | residual activity [5] [%] | residual activity [6] [%] | residual activity [7] [%] | residual activity [8] [%] | residual activity [9] [%] | residual activity [10] [%] | residual activity [11] [%] | residual activity [12] [%] | residual activity [13] [%] | Compound
100 | 37 | 89 | 102 | 99 | 43 | 17 | 108 | 86 | 80 | 71 | 91 | 61 | COc1cc2c(Oc3ccc(-c4nc5ccccc5s4)cc3)ncnc2cc1OCCCN1CCCC1
100 | 29 | 82 | 106 | 100 | 21 | 18 | 112 | 93 | 94 | 88 | 86 | 80 | COc1cc2c(Oc3ccc(-c4nc5ccccc5s4)cc3)ncnc2cc1OCCCN1CCN(C)CC1
100 | 36 | 95 | 114 | 90 | 33 | 3 | 102 | 86 | 90 | 89 | 84 | 50 | COc1cc2c(Oc3ccc(-c4nc5ccccc5s4)cc3F)ncnc2cc1OCCCN1CCN(C)CC1
